For 15 molecules, GI50 and TGI results are on record in PubChem BioAssay (NCI).

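How tested: cells in 96-well plates exposed to compound for 48 hours at five concentrations. GI50 = concentration required for 50% inhibition of growth. TGI: total growth inhibition.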 Bounds are passed on as bounds.

Experiment in all cases: NCI-60 cell line screen, 48 h
In assay [1] the test system is HS 578T breast.
For assay [2], the system named is RPMI-8226 leukemia.
The subject of assay [3] is UO-31 renal.
Assay [4] has as its system T-47D breast.
For assay [5], the system named is MOLT-4 leukemia.
For assay [6], the system named is UACC-257 melanoma.
Assay [7] concerns DU-145 prostate.
The test system of assay [8] is MDA-MB-435.
Assay [9] relates to SNB-19 CNS.
Assay [10] relates to M14 melanoma.

Turning to `COc1ccc(-c2nsc3c2NC(=O)CC3c2ccc3c(c2)OCO3)cc1` (configuration not stated), the GI50 in assay [1] is 2060 nM; in assay [2] it was 2510 nM; in assay [3], 5090 nM; in assay [4], 724 nM; in assay [5], 1290 nM; in [6] it was 10800 nM. Further, the GI50 in [7] is 2.78 µM; in [8] it was 219 nM; in assay [9] it was 48.7 µM; in assay [10], 715 nM. Further, the TGI was 54.5 µM in [1]; over 100 µM in assay [2]; over 100 µM in [3]; over 100 µM in [4]; 18.7 µM in assay [5]; over 100 µM in [6]. The TGI is 53.1 µM in assay [7], 0.539 µM in assay [8], over 100 µM in assay [9] and over 100 µM in [10].

In the case of `Cc1nc2cncc(C#Cc3cncc(C(=O)Nc4ccc(CN5CCN(C)CC5)c(C(F)(F)F)c4)c3)c2nc1C`, the GI50 in assay [1] is 193 nM; in [2], 487 nM; in [3], 256 nM; in assay [4] it was 1240 nM; in assay [5] it was 450 nM; in assay [6], 549 nM. Moreover, the GI50 was 0.349 µM in [7], 210 nM in assay [8], 5.08 µM in assay [9] and 144 nM in assay [10]. The TGI is 1.61 µM in assay [1]; 4.49 µM in assay [2]; 1.06 µM in assay [3]; 22.7 µM in [4]; 10.4 µM in assay [5]; 3.56 µM in assay [6]. In addition, the TGI in assay [7] came to 6.48 µM; in assay [8], 3.03 µM; in assay [9], 13.2 µM; in assay [10], 0.624 µM.

As for `O=CN1N=C(c2ccc(Nc3ccnc4cc(Cl)ccc34)cc2)CC1c1ccccc1` (configuration not stated), the GI50 was 3770 nM in [1]; 2550 nM in assay [2]; 3810 nM in [3]; 2180 nM in assay [4]; 2280 nM in assay [5]; 10100 nM in assay [6]. The GI50 in [7] is 3.8 µM; in assay [8] it was 1590 nM; in assay [9] it was 5.13 µM; in [10], 4120 nM. The TGI in assay [1] was 71.1 µM; in assay [2], 12.3 µM; in [3], over 100 µM; in [4] it was 7.42 µM; in [5] it was 6.4 µM; in assay [6] it was over 100 µM. Further, the TGI is 27.8 µM in assay [7], 4.67 µM in [8], over 100 µM in [9] and 31 µM in [10].

On to `CSc1ccc(-c2cc(-c3ccc(NC(=O)CCCN4CCCC4)cc3)nc(-c3ccc(NC(=O)CCCN4CCCC4)cc3)c2)cc1`, for which the GI50 was 2280 nM in assay [1]; 2160 nM in [2]; 15500 nM in assay [3]; 6520 nM in assay [4]; 1790 nM in [5]; 4940 nM in assay [6]. For the same molecule, the GI50 is 4.1 µM in [7], 1680 nM in [8], 4.92 µM in assay [9] and 4230 nM in [10]. In addition, the TGI in assay [1] is 6.38 µM; in assay [2] it was 4.56 µM; in assay [3], 37.8 µM; in [4], 21.7 µM; in assay [5], 3.62 µM; in assay [6], 25.2 µM. In addition, the TGI in [7] amounted to 13.3 µM; in assay [8], 3.06 µM; in assay [9], 23.8 µM; in assay [10], 17.4 µM.

For `CCCCCCCCCCCCCC[P+](CCCCCC)(CCCCCC)CCCCCC`, the GI50 in [1] was 41 nM; in [2], 15.8 nM; in assay [3], 290 nM; in [4] it was 50.1 nM; in assay [5] it was 68.9 nM; in assay [6], 75.5 nM. Further, the GI50 in assay [7] is 0.0857 µM; in [8], 37.2 nM; in [9], 0.0688 µM; in assay [10] it was 52.1 nM. Further, the TGI in assay [2] was 0.0395 µM; in assay [5] it was 0.952 µM; in [6], 0.79 µM; in [7] it was 1.68 µM; in assay [8], 0.391 µM; in [9], over 100 µM. This molecule also displayed a TGI in [10] of 2.91 µM.

On to `CNC(=O)c1c(NC(=O)c2cccc(C(F)(F)F)c2)sc2c1CCC(=O)C2`, for which the GI50 in [1] was 425 nM; in [2], 198 nM; in assay [3] it was 197 nM; in assay [4] it was 305 nM; in [5], 356 nM; in assay [6], 1900 nM. Further, the GI50 is 3.22 µM in assay [7], 544 nM in assay [8], 0.356 µM in assay [9] and 417 nM in [10]. In addition, the TGI was determined as 45.9 µM in [1]; 0.781 µM in [2]; 0.77 µM in assay [3]; 2.29 µM in assay [4]; 4.63 µM in [5]; 7.3 µM in assay [6]. The TGI is over 100 µM in assay [7], 3.1 µM in [8], over 100 µM in [9] and 4 µM in assay [10].

As for `CCN(CC)CCOc1ccc(Nc2ncc3cc(-c4c(Cl)cccc4Cl)c(=O)n(CCOC)c3n2)cc1`, the GI50 in [1] was 27.3 nM; in assay [2], 921 nM; in assay [3] it was 12 nM; in assay [4] it was 133 nM; in assay [5], 781 nM; in assay [6] it was 881 nM. The GI50 was 0.217 µM in [7], 469 nM in assay [8], 0.458 µM in assay [9] and 233 nM in [10]. For the same molecule, the TGI in assay [1] was 1.57 µM; in assay [2], 3.15 µM; in assay [3], 0.179 µM; in [4], 16.5 µM; in [5], 5.41 µM; in [6] it was 4.58 µM. Also, the TGI in assay [7] is 2.8 µM; in assay [8] it was 2.5 µM; in [9], 6.01 µM; in assay [10], 1.5 µM.

For `CC1=C(C(=O)Nc2ccc3[nH]ncc3c2)C(c2ccc(F)cc2)NC(=O)N1` (configuration not stated), the GI50 in [1] was 7410 nM; in assay [2], over 25000 nM; in assay [3], over 17500 nM; in [4] it was over 25000 nM; in assay [5], over 25000 nM; in [6], over 25000 nM. Besides, the GI50 in assay [7] was over 25 µM; in assay [8], over 25000 nM; in assay [9], over 25 µM; in assay [10], over 25000 nM. In addition, the TGI in [1], in assay [2], in assay [3], in [4], in assay [5] and in assay [6] was over 25 µM in each case. In addition, the TGI in assay [7], in assay [8], in assay [9] and in [10] was over 25 µM in each case.

Regarding `COc1cc(C(=O)/C=C/c2c(-c3ccc(F)cc3)nc3sc(C)cn23)cc(OC)c1OC`, the GI50 in [1] was 8290 nM; in assay [2], 2320 nM; in assay [3], 2950 nM; in assay [4], 2930 nM; in assay [5], 1620 nM; in assay [6] it was 4750 nM. The GI50 was 7.52 µM in assay [7], 1750 nM in assay [8], 87.7 µM in [9] and 5120 nM in assay [10]. Moreover, the TGI is over 100 µM in assay [1]; over 100 µM in assay [2]; over 100 µM in assay [3]; over 100 µM in assay [4]; 5.13 µM in [5]; over 100 µM in assay [6]. Besides, the TGI is over 100 µM in [7], 6.92 µM in assay [8], over 100 µM in [9] and over 100 µM in [10].

On to `C=C1C(=O)O[C@H]2[C@H]1CC/C(CNS(=O)(=O)c1ccc3ccccc3c1)=C\CC[C@@]1(C)O[C@@H]21`, for which the GI50 in assay [1] is 4690 nM; in assay [2], 1460 nM; in [3], 1340 nM; in assay [4] it was 1920 nM; in assay [5] it was 1560 nM; in [6], 1900 nM. Besides, the GI50 is 1.34 µM in assay [7], 2350 nM in assay [8], 12 µM in assay [9] and 1570 nM in assay [10]. For the same molecule, the TGI in assay [1] worked out at 29.1 µM; in assay [2] it was 4.5 µM; in assay [3] it was 2.78 µM; in assay [4] it was 4.64 µM; in [5], 4.71 µM; in [6] it was 4.54 µM. The TGI in [7] was determined as 3.56 µM; in assay [8] it was 7.37 µM; in [9], 26.7 µM; in assay [10] it was 3.49 µM.

For the molecule `CNc1nc(C)c(-c2nc(Nc3cccc(S(N)(=O)=O)c3)ncc2F)s1`, the GI50 in [1] is 42.9 nM; in [2], 95.8 nM; in assay [3], 35 nM; in assay [4] it was 27.4 nM; in [5] it was 30.9 nM; in assay [6], 65.7 nM. For the same molecule, the GI50 is 0.0358 µM in [7], 37.9 nM in [8], 0.0273 µM in [9] and 30.5 nM in assay [10]. For the same molecule, the TGI in [1] worked out at 3.97 µM; in assay [2], 0.273 µM; in assay [3] it was 0.505 µM; in [4], 0.472 µM; in assay [5] it was 0.185 µM; in assay [6], 0.232 µM. For the same molecule, the TGI in assay [7] was determined as 17.6 µM; in assay [8], 2.45 µM; in [9], 14.1 µM; in [10] it was 1.58 µM.

As to `N#Cc1cccc(C(=O)c2cnn(-c3ccc(F)cc3)c2N)c1`, the GI50 in [1], in [2], in assay [3], in assay [4], in assay [5] and in [6] was over 25000 nM throughout. Further, the GI50 in [7] is over 25 µM; in assay [8], over 25000 nM; in assay [9] it was over 25 µM; in assay [10], over 25000 nM. Further, the TGI in assay [1], in assay [2], in assay [3], in assay [4], in assay [5] and in assay [6] was over 25 µM in each case. The TGI in assay [7], in assay [8], in assay [9] and in assay [10] was over 25 µM throughout.

In the case of `O=C(Nc1ccc(Cl)cc1)c1cc2c(cc1O)[nH]c1ccccc12`, the GI50 in assay [1] is 3080 nM; in assay [2], 2710 nM; in assay [3], 2860 nM; in assay [4], 2370 nM; in assay [5], 4180 nM; in assay [6], 2480 nM. The GI50 is 3.81 µM in assay [7], 2120 nM in [8], 3.43 µM in [9] and 2850 nM in assay [10]. Further, the TGI in assay [1] is 14.5 µM; in [2], 8.45 µM; in assay [3], 12.9 µM; in [4] it was 6.78 µM; in assay [5], 47.4 µM; in assay [6], 6.66 µM. The TGI in [7] was found to be 13.2 µM; in assay [8], 5.85 µM; in [9], 30.6 µM; in assay [10], 10.4 µM.

`Nc1c(C(=O)c2cccc(-c3ccc[n+]([O-])c3)c2)cnn1-c1ccc(F)cc1F`: the GI50 in assay [1], in assay [2], in assay [3], in [4], in assay [5] and in assay [6] was over 25000 nM each time. Further, the GI50 in assay [7] was over 25 µM; in [8] it was 15200 nM; in [9], over 25 µM; in assay [10], over 25000 nM. Moreover, the TGI in assay [1], in assay [2], in assay [3], in [4], in assay [5] and in [6] was over 25 µM each time. Further, the TGI in assay [7], in assay [8], in assay [9] and in [10] was over 25 µM throughout.

With `Cc1cc(=O)c2cc(N=Cc3ccc([N+](=O)[O-])o3)ccc2o1`, the TGI in [1], in assay [2], in [3], in [4], in assay [5] and in assay [6] was over 100 µM throughout. The TGI in [7], in assay [8], in assay [9] and in assay [10] was over 100 µM throughout.
